Data as given in patent US6656690B2, “Mass spectrometric methods for biomolecular screening” (priority 1998, dated 2003).
Entries after “also recorded” stand apart in the source; their conditions may differ.

Experiments:
[1] = system: 16S A site 27mer RNA; test: ESI-FTICR mass spectrometric (MASS) binding assay, 16S A-site 27-mer RNA model; set-up: species or system prokaryotic; settings: for complexes observed with 16S (in words): aminoglycosides 500 nM each, mixture with untagged 16S and tagged 18S
Experimental: (§1) The ESI-FTICR mass spectrum depicted in FIG. 26 was acquired from a […] mixture of untagged 16S and tagged 18S in the presence of an equimolar mixture of five aminoglycosides. It is to be understood that other biomolecules may be used in place of the aminoglycosides. The aminoglycosides have been selected from two classes of 2-deoxystreptamines: 4,5-disubstituted (paromomycin, and lividomycin), and 4,6-disubstituted (tobramycin, sisomicin, and bekanamycin), present at 500 nM each. Complexes corresponding to 1:1 binding of individual aminoglycosides were observed between 16S and all members of the aminoglycoside mixture, with the apparent affinities estimated from the abundances of the respective complexes differing substantially. Signal intensities from the complexes with paromomycin (m/z 1925.572) and lividomycin (m/z 1954.790) are consistent with MS-measured dissociation constants of 110 nM and 28 nM, respectively. The intensities of 16S complexes with tobramycin (m/z 1895.960), bekanamycin (m/z 1899.171), and sisomicin (m/z 1891.972) were reduced, consistent with solution dissociation constants of […]. Wang, et al., Biochemistry, 1997, 36, 768-779. […] The spectrum is calibrated using multiple isotope peaks of the (M-5H^+)^5− and (M-4H^+)^4− charge states of the free RNA as internal mass standards which brackets the m/z range in which complexes are observed. The average mass measurement error obtained for the complexes in FIG. 26 is 2.1 ppm when m/z differences are measured between the most abundant (4 ^13C) isotope peak of 16S and each complex. This post calibration scheme is easily automated which enables rapid, high precision mass measurements of affinity selected ligands against multiple targets in a high throughput mode.
A preferred first step of MASS screening involves mixing the RNA target (or targets) with a combinatorial library of ligands designed to bind to a specific site on the target molecule(s). Specific noncovalent complexes formed in solution between the target(s) and any library members are transferred into the gas phase and ionized by ESI. As described herein, from the measured mass difference between the complex and the free target, the identity of the binding ligand can be determined. The dissociation constant of the complex can be determined in two ways: if a ligand with a known binding affinity for the target is available, a relative Kd can be measured by using the known ligand as an internal control and measuring the abundance of the unknown complex to the abundance of the control, alternatively, if no internal control is available, Kd's can be determined by making a series of measurements at different ligand concentrations and deriving a Kd value from the “titration” curve.
Electrospray ionization Fourier transform ion cyclotron resonance mass spectrometry was performed on a solution containing […] 16S RNA (the 27-mer construct shown in FIG. 24) and 500 nM paromomycin is depicted in FIG. 13. A 1:1 complex was observed between the paromomycin and the RNA consistent with specific aminoglycoside binding at the A-site. The insets show the measured and calculated isotope envelopes of the (M-5H+)5− species of the free RNA and the RNA-paromomycin complex. High precision mass measurements were acquired using isotope peaks of the (M-5H+)^5− and (M-4H^+)^4− charge states of the free RNA as internal mass standards and measuring the m/z difference between the free and bound RNA.
ESI-MS measurements of a solution containing a fixed concentration of RNA at different concentrations of ligand were obtained. By measuring the ratio of bound:unbound RNA at varying ligand concentrations, the Kd was determined by 1/slope of the “titration curve”. The MS derived value of 110 nM is in good agreement with previously reported literature value of 200 nM. […]

[2] = system: 18S A site model; test: ESI-FTICR mass spectrometric (MASS) binding assay, mass-tagged 18S A-site 27-mer RNA model; set-up: species or system eukaryotic; settings: aminoglycosides 500 nM each, mixture with untagged 16S and tagged 18S
Experimental: as §1, with “The” for “The spectrum is calibrated using multiple isotope peaks of the (M-5H^+)^5− and (M-4H^+)^4− charge states of the free RNA as internal mass standards which brackets the m/z range in which complexes are observed. The”, “This post calibration scheme is easily automated which enables rapid, high precision mass measurements of affinity selected ligands against multiple targets in a high throughput mode.” left out

Row | complexes observed with 16S (in words) [1] | complexes observed with 16S (in words) ([1]; listed as bekamycin) | complexes observed with 16S (in words) ([1]; listed as sisomycin) | SMILES | Kd ([1]; ESI-FTICR MS, 16S A site 27mer, read-out: MS-measured dissociation constant (KD)) | enhancement of binding affinity for 16S relative to paromomycin ([1]; lividomycin vs paromomycin) | complexes observed with 18S (in words) [2]
1 | reduced | Weaker complexes | – | NC[C@H]1O[C@H](O[C@H]2[C@H](O)[C@@H](O[C@H]3O[C@H](CO)[C@@H](O)[C@H](N)[C@H]3O)[C@H](N)C[C@@H]2N)[C@H](N)[C@@H](O)[C@@H]1O [bekanamycin] | – | – | –
2 | reduced | – | Weaker complexes | CN[C@@H]1[C@@H](O)[C@@H](O[C@@H]2[C@@H](O)[C@H](O[C@H]3OC(CN)=CC[C@H]3N)[C@@H](N)C[C@H]2N)OC[C@]1(C)O [sisomicin] | – | – | –
3 | reduced; also recorded: Weaker complexes | – | – | NC[C@H]1O[C@H](O[C@H]2[C@H](O)[C@@H](O[C@H]3O[C@H](CO)[C@@H](O)[C@H](N)[C@H]3O)[C@H](N)C[C@@H]2N)[C@H](N)C[C@@H]1O [tobramycin] | – | – | –

Row | SMILES | complexes observed with 16S (in words) [1] | complexes observed with 16S (in words) ([1]; listed as bekamycin) | complexes observed with 16S (in words) ([1]; listed as sisomycin) | Kd ([1]; ESI-FTICR MS, 16S A site 27mer, read-out: MS-measured dissociation constant (KD)) | enhancement of binding affinity for 16S relative to paromomycin ([1]; lividomycin vs paromomycin) | complexes observed with 18S (in words) [2]
4 | NC[C@@H]1O[C@H](O[C@H]2[C@@H](O)[C@H](O[C@@H]3[C@@H](O)[C@H](N)C[C@H](N)[C@H]3O[C@H]3O[C@H](CO)[C@@H](O)C[C@H]3N)O[C@@H]2CO)[C@H](N)[C@@H](O)[C@@H]1O[C@H]1O[C@H](CO)[C@@H](O)[C@H](O)[C@@H]1O [lividomycin] | High affinity complexes | – | – | 28 nM | ~4 fold | complete absence of complexes
